Measured values taken from the NIST ThermoML archive (doi:10.1021/je800925v).

Assay: xn = mol fraction of the nth substance listed
Details: Liquid

CCCCCCCC [octane] + CCO
Details	mass density [kg/m3]	viscosity [mPa·s]
273.15 K, x2 = 0.095	713.3	0.6185
273.15 K, x2 = 0.192	715.9	0.6401
273.15 K, x2 = 0.294	719.6	0.698
273.15 K, x2 = 0.399	725.5	0.7603
273.15 K, x2 = 0.496	732.2	0.8635
273.15 K, x2 = 0.602	740.1	0.9516
273.15 K, x2 = 0.691	752	1.103
273.15 K, x2 = 0.807	763.9	1.262
273.15 K, x2 = 0.911	781	1.459
275.65 K, x2 = 0.095	709.2	0.6003
275.65 K, x2 = 0.192	713.9	0.6206
275.65 K, x2 = 0.294	719.5	0.6743
275.65 K, x2 = 0.399	723.4	0.7329
275.65 K, x2 = 0.496	731.5	0.828
275.65 K, x2 = 0.602	738	0.9122
275.65 K, x2 = 0.691	749.9	1.054
275.65 K, x2 = 0.807	761.7	1.203
275.65 K, x2 = 0.911	778.9	1.389
278.15 K, x2 = 0.095	707.2	0.583
278.15 K, x2 = 0.192	711.8	0.6019
278.15 K, x2 = 0.294	717.2	0.652
278.15 K, x2 = 0.399	721.3	0.7069
278.15 K, x2 = 0.496	729.4	0.7951
278.15 K, x2 = 0.602	735.9	0.8751
278.15 K, x2 = 0.691	747.8	1.008
278.15 K, x2 = 0.807	759.7	1.148
278.15 K, x2 = 0.911	776.8	1.323
280.65 K, x2 = 0.095	705.1	0.5664
280.65 K, x2 = 0.192	708.5	0.5841
280.65 K, x2 = 0.294	714.8	0.6308
280.65 K, x2 = 0.399	719.2	0.6822
280.65 K, x2 = 0.496	725.2	0.7643
280.65 K, x2 = 0.602	733.8	0.8399
280.65 K, x2 = 0.691	745.7	0.9555
280.65 K, x2 = 0.807	757.6	1.097
280.65 K, x2 = 0.911	774.7	1.26
283.15 K, x2 = 0.095	703	0.5505
283.15 K, x2 = 0.192	706.4	0.5669
283.15 K, x2 = 0.294	712.5	0.6105
283.15 K, x2 = 0.399	717.1	0.6587
283.15 K, x2 = 0.496	723.1	0.7348
283.15 K, x2 = 0.602	731.7	0.8067
283.15 K, x2 = 0.691	743.6	0.9146
283.15 K, x2 = 0.807	755.4	1.047
283.15 K, x2 = 0.911	772.6	1.202
285.65 K, x2 = 0.095	701	0.5351
285.65 K, x2 = 0.192	704.3	0.5505
285.65 K, x2 = 0.294	710.2	0.5906
285.65 K, x2 = 0.399	715	0.6363
285.65 K, x2 = 0.496	723.1	0.707
285.65 K, x2 = 0.602	729.6	0.7758
285.65 K, x2 = 0.691	741.5	0.8763
285.65 K, x2 = 0.807	753.3	1.002
285.65 K, x2 = 0.911	770.5	1.147
288.15 K, x2 = 0.095	698.9	0.5207
288.15 K, x2 = 0.192	702.2	0.5347
288.15 K, x2 = 0.294	708.1	0.5721
288.15 K, x2 = 0.399	712.9	0.615
288.15 K, x2 = 0.496	721	0.6805
288.15 K, x2 = 0.602	727.5	0.7453
288.15 K, x2 = 0.691	739.4	0.8411
288.15 K, x2 = 0.807	751.2	0.958
288.15 K, x2 = 0.911	768.4	1.095
290.65 K, x2 = 0.095	696.8	0.5072
290.65 K, x2 = 0.192	700.1	0.5195
290.65 K, x2 = 0.294	705.9	0.5541
290.65 K, x2 = 0.399	710.8	0.5946
290.65 K, x2 = 0.496	718.9	0.6543
290.65 K, x2 = 0.602	725.3	0.7168
290.65 K, x2 = 0.691	737.2	0.8071
290.65 K, x2 = 0.807	749.1	0.9164
290.65 K, x2 = 0.911	766.3	1.046
293.15 K, x2 = 0	705.6	0.5374
293.15 K, x2 = 0.095	694.7	0.4931
293.15 K, x2 = 0.192	698	0.5049
293.15 K, x2 = 0.294	703.8	0.5366
293.15 K, x2 = 0.399	708.6	0.5752
293.15 K, x2 = 0.496	716.8	0.6298
293.15 K, x2 = 0.602	723.2	0.6899
293.15 K, x2 = 0.691	735.1	0.7742
293.15 K, x2 = 0.807	746.9	0.8781
293.15 K, x2 = 0.911	764.1	0.9997
295.65 K, x2 = 0.095	692.6	0.4796
295.65 K, x2 = 0.192	695.9	0.4908
295.65 K, x2 = 0.294	701.7	0.5197
295.65 K, x2 = 0.399	706.5	0.5566
295.65 K, x2 = 0.496	714.7	0.6039
295.65 K, x2 = 0.602	721.1	0.6643
295.65 K, x2 = 0.691	732.9	0.7428
295.65 K, x2 = 0.807	744.7	0.8415
295.65 K, x2 = 0.911	762	0.956
298.15 K, x2 = 0	701.6	0.5087
298.15 K, x2 = 0.095	690.5	0.4675
298.15 K, x2 = 0.192	693.8	0.477
298.15 K, x2 = 0.294	699.6	0.5022
298.15 K, x2 = 0.399	704.3	0.5386
298.15 K, x2 = 0.496	712.6	0.5828
298.15 K, x2 = 0.602	718.9	0.6396
298.15 K, x2 = 0.691	730.8	0.7137
298.15 K, x2 = 0.807	742.6	0.8061
298.15 K, x2 = 0.911	759.8	0.925
